Reference: US20230072683A1, “PYRIDO-PYRIMIDIN DERIVATIVES AND PHARMACEUTICAL COMPOSITION, FOR USE IN PREVENTING OR TREATING PI3 KINASE RELATED DISEASES, COMPRISING SAME AS ACTIVE INGREDIENT” (BORYUNG PHARMACEUTICAL CO., LTD, priority 2019, published 2023)
Like-named read-outs stand apart in the source and are kept apart here.

How the values were obtained:
[1] = biological target: DNA-PK(h) (Homo sapiens, UniProt P78527); assay: Evaluation of inhibitory activity against DNA-PK (HTRF kinase assay, GST-cMyc-p53 substrate); assay type: biochemical; details: for inhibition at 0.01 µM: compound concentration 0.01 μM, read-out: EXP_VALUE(% Inhibition) DNA-PK(h) 0.01 μM; for inhibition at 0.1 µM: read-out: EXP_VALUE(% Inhibition) DNA-PK(h) 0.1 μM
Summary of the method: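 p53 Ser15 phosphorylation by human DNA-PK was measured by time-resolved FRET ratio (665/620 nm ×10000) using Eu-labelled anti-phospho-Ser15 and d2 anti-GST antibodies. Substrate GST-cMyc-p53 at 50 μM; Mg/ATP-initiated, 30 min at room temperature, EDTA stop.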

[2] = biological target: PI3K-δ (PI3K(p1108/p857) (h)) (Homo sapiens, UniProt O00329); assay: Evaluation of inhibitory activity against PI3K-δ (HTRF kinase assay); assay type: biochemical; details: for inhibition at 0.01 µM: compound concentration 0.01 μM, read-out: EXP_VALUE(% Inhibition) PI3K-δ 0.01 μM; for inhibition at 0.1 µM: read-out: EXP_VALUE(% Inhibition) PI3K-δ 0.1 μM
Chain of PI3K-δ (PI3K(p1108/p857) (h)) (O00329 whole entry, the tested form may be a part): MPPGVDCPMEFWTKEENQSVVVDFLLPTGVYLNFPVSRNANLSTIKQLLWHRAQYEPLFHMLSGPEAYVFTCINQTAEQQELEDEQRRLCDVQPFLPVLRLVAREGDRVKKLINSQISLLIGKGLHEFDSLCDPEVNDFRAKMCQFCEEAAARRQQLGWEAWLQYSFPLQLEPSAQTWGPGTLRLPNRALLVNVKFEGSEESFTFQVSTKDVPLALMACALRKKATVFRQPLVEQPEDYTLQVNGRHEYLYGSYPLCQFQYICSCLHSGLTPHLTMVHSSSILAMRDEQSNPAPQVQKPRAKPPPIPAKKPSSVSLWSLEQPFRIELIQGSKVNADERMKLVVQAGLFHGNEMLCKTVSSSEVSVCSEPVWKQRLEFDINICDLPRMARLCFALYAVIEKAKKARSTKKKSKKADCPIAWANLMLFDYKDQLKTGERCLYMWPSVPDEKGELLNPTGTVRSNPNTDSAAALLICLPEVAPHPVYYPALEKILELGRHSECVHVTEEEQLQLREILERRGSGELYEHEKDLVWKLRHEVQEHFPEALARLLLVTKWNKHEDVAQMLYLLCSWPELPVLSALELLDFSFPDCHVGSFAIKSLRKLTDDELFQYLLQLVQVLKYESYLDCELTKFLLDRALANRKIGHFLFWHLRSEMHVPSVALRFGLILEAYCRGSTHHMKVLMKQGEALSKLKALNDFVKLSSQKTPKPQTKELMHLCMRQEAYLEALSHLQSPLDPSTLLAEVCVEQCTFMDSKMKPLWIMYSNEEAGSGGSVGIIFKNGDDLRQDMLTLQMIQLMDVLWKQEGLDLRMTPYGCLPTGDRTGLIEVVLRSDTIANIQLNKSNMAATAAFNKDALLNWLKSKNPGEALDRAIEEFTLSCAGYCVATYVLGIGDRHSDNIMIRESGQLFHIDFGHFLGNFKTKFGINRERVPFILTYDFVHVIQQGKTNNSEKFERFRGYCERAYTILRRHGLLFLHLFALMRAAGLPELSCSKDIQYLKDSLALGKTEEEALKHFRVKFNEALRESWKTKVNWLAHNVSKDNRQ
Chain of PI3K-δ (PI3K(p1108/p857) (h)) (P27986 whole entry partner, the tested form may be a part): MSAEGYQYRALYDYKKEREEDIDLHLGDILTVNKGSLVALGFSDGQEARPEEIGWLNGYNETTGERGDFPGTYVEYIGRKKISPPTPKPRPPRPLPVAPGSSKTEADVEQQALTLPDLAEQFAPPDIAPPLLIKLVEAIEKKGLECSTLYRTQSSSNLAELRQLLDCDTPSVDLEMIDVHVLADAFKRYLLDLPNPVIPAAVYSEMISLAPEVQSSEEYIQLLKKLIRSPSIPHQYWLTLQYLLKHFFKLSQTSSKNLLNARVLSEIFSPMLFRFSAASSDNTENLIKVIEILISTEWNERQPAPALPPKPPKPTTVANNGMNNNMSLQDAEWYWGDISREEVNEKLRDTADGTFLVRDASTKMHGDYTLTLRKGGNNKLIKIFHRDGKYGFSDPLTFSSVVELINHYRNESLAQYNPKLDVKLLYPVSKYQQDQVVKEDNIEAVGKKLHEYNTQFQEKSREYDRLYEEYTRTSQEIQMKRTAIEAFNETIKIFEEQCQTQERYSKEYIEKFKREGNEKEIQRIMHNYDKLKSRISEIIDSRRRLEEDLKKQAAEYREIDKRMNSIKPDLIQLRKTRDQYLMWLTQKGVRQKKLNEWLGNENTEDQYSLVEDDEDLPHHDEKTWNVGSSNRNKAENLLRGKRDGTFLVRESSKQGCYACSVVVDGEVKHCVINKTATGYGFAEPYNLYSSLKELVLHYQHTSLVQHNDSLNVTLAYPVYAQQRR
Summary of the method: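 HTRF read-out (665/620 nm ratio ×10000) used Eu-labelled anti-GST, GST-tagged GRP1 PH domain and streptavidin-allophycocyanin after EDTA/PIP3 stop.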

Compound	inhibition at 0.01 µM [1] [%]	inhibition at 0.1 µM ([1]; compound concentration 0.1 μM) [%]	inhibition at 0.01 µM [2] [%]	inhibition at 0.1 µM ([2]; compound concentration 0.1 μM) [%]	inhibition at 0.1 µM ([1]; compound at 0.1 μM) [%]	inhibition at 0.1 µM ([2]; compound at 0.1 μM) [%]
Cc1ccc(Oc2cccc3c(Cl)c([C@H](C)Nc4ncnc5[nH]ccc(=O)c45)n(-c4ccccc4)c(=O)c23)cc1 [Example 367, (S)-4-((1-(4-chloro-1-oxo-2-phenyl-8-(p-tolyloxy)-1,2-dihydroisoquinolin-3-yl)ethyl)amino)pyrido[2,3-d]pyrimidin-5(8H)-one]	21	67	51	93	–	–
CC(Oc1cccc2c(Cl)c([C@H](C)Nc3ncnc4[nH]ccc(=O)c34)n(-c3ccccc3)c(=O)c12)c1ccncc1 (stereo partly drawn) [Example 368, 4-(((1S)-1-(4-chloro-1-oxo-2-phenyl-8-(1-(pyridin-4-yl)ethoxy)-1,2-dihydroisoquinolin-3-yl)ethyl)amino)pyrido[2,3-d]pyrimidin-5(8H)-one]	50	85	72	94	–	–
C[C@H](Nc1ncnc2[nH]ccc(=O)c12)c1c(Cl)c2cccc(SCc3ccc(Cl)cc3)c2c(=O)n1-c1ccccc1 [Example 369, (S)-4-((1-(4-chloro-8-((4-chlorobenzyl)thio)-1-oxo-2-phenyl-1,2-dihydroisoquinolin-3-yl)ethyl)amino)pyrido[2,3-d]pyrimidin-5(8H)-one]	14	54	5	27	–	–
C[C@H](Nc1ncnc2[nH]ccc(=O)c12)c1c(Cl)c2cccc(Sc3ccncc3)c2c(=O)n1-c1ccccc1 [Example 370, (S)-4-((1-(4-chloro-1-oxo-2-phenyl-8-(pyridin-4-ylthio)-1,2-dihydroisoquinolin-3-yl)ethyl)amino)pyrido[2,3-d]pyrimidin-5(8H)-one]	39	76	69	96	–	–
C[C@H](Nc1ncnc2[nH]ccc(=O)c12)c1c(Cl)c2cccc(Sc3ccc(Cl)cc3)c2c(=O)n1-c1ccccc1 [Example 371, (S)-4-((1-(4-chloro-8-((4-chlorophenyl)thio)-1-oxo-2-phenyl-1,2-dihydroisoquinolin-3-yl)ethyl)amino)pyrido[2,3-d]pyrimidin-5(8H)-one]	0	4	2	10	–	–
CCCSc1cccc2c(Cl)c([C@H](C)Nc3ncnc4[nH]ccc(=O)c34)n(-c3ccccc3)c(=O)c12 [Example 372, (S)-4-((1-(4-chloro-1-oxo-2-phenyl-8-(propylthio)-1,2-dihydroisoquinolin-3-yl)ethyl)amino)pyrido[2,3-d]pyrimidin-5(8H)-one]	38	79	3	19	–	–
C[C@H](Nc1ncnc2[nH]ccc(=O)c12)c1c(Cl)c2cccc(-c3ccc4c(c3)NC(=O)C(C)(C)O4)c2c(=O)n1-c1ccccc1 [Example 373, (S)-6-(4-chloro-1-oxo-3-(1-((5-oxo-5,8-dihydropyrido[2,3-d]pyrimidin-4-yl)amino)ethyl)-2-phenyl-1,2-dihydroisoquinolin-8-yl)-2,2-dimethyl-2H-benzo[b] [1,4]oxazin-3 (4H)-one]	–	36	–	48	–	–
COc1cc(-n2ccc(=O)c3c(N[C@@H](C)c4c(Cl)c5ccccc5c(=O)n4-c4ccccc4)ncnc32)ccn1 [Example 374, (S)-4-((1-(4-chloro-1-oxo-2-phenyl-1,2-dihydroisoquinolin-3-yl)ethyl)amino)-8-(2-methoxypyridin-4-yl)pyrido[2,3-d]pyrimidin-5(8H)-one]	–	–	–	–	14	21
CC(C)Oc1cnc(-c2cccc3c(Cl)c([C@H](C)Nc4ncnc5[nH]ccc(=O)c45)n(-c4ccccc4)c(=O)c23)cn1 [Example 376, (S)-4-((1-(4-chloro-8-(5-isopropoxypyrazin-2-yl)-1-oxo-2-phenyl-1,2-dihydroisoquinolin-3-yl)ethyl)amino)pyrido[2,3-d]pyrimidin-5(8H)-one]	–	–	–	–	18	49
C[C@H](Nc1ncnc2[nH]ccc(=O)c12)c1c(Cl)c2cccc(-c3cnc(-c4cccs4)nc3)c2c(=O)n1-c1ccccc1 [Example 377, (S)-4-((1-(4-chloro-1-oxo-2-phenyl-8-(2-(thiophen-2-yl)pyrimidin-5-yl)-1,2-dihydroisoquinolin-3-yl)ethyl)amino)pyrido[2,3-d]pyrimidin-5(8H)-one]	–	–	–	–	30	59
C[C@H](Nc1ncnc2[nH]ccc(=O)c12)c1c(Cl)c2cccc(-c3cnc(-c4ccco4)nc3)c2c(=O)n1-c1ccccc1 [Example 378, (S)-4-((1-(4-chloro-8-(2-(furan-2-yl)pyrimidin-5-yl)-1-oxo-2-phenyl-1,2-dihydroisoquinolin-3-yl)ethyl)amino)pyrido[2,3-d]pyrimidin-5(8H)-one]	–	–	–	–	18	61
CCc1ncc(-c2cccc3c(Cl)c([C@H](C)Nc4ncnc5[nH]ccc(=O)c45)n(-c4ccccc4)c(=O)c23)cn1 [Example 379, (S)-4-((1-(4-chloro-8-(2-ethylpyrimidin-5-yl)-1-oxo-2-phenyl-1,2-dihydroisoquinolin-3-yl)ethyl)amino)pyrido[2,3-d]pyrimidin-5(8H)-one]	–	–	–	–	74	80
C[C@H](Nc1ncnc2[nH]ccc(=O)c12)c1c(Cl)c2cccc(-c3cc4ccccc4[nH]3)c2c(=O)n1-c1ccccc1 [Example 380, (S)-4-((1-(4-chloro-8-(1H-indol-2-yl)-1-oxo-2-phenyl-1,2-dihydroisoquinolin-3-yl)ethyl)amino)pyrido[2,3-d]pyrimidin-5(8H)-one]	–	–	–	–	19	76
CC(C)c1ncc(-c2cccc3c(Cl)c([C@H](C)Nc4ncnc5[nH]ccc(=O)c45)n(-c4ccccc4)c(=O)c23)cn1 [Example 381, (S)-4-((1-(4-chloro-8-(2-isopropylpyrimidin-5-yl)-1-oxo-2-phenyl-1,2-dihydroisoquinolin-3-yl)ethyl)amino)pyrido[2,3-d]pyrimidin-5(8H)-one]	–	–	–	–	69	81
C[C@H](Nc1ncnc2[nH]ccc(=O)c12)c1c(Cl)c2cccc(-c3cnc(F)nc3)c2c(=O)n1-c1ccccc1 [Example 382, (S)-4-((1-(4-chloro-8-(2-fluoropyrimidin-5-yl)-1-oxo-2-phenyl-1,2-dihydroisoquinolin-3-yl)ethyl)amino)pyrido[2,3-d]pyrimidin-5(8H)-one]	–	–	–	–	5	16
COc1ncc(-c2cccc3cc([C@H](C)Nc4ncnc5[nH]ccc(=O)c45)n(-c4ccccc4)c(=O)c23)cn1 [Example 383, (S)-4-((1-(8-(2-methoxypyrimidin-5-yl)-1-oxo-2-phenyl-1,2-dihydroisoquinolin-3-yl)ethyl)amino)pyrido[2,3-d]pyrimidin-5(8H)-one]	–	–	–	–	10	79
CCOc1ncc(-c2cccc3cc([C@H](C)Nc4ncnc5[nH]ccc(=O)c45)n(-c4ccccc4)c(=O)c23)cn1 [Example 384, (S)-4-((1-(8-(2-ethoxypyrimidin-5-yl)-1-oxo-2-phenyl-1,2-dihydroisoquinolin-3-yl)ethyl)amino)pyrido[2,3-d]pyrimidin-5(8H)-one]	–	–	–	–	40	85
